Measured values from EP4806900A2, “RAS INHIBITORS” (Revolution Medicines, Inc., priority 2019, dated 2021).

The compounds below were run on NCI-H358 (K-Ras G12C) (assay: CellTiter-Glo cell viability assay, NCI-H358). Conditions: Table 5; read-out: H358 Cell Viability assay data (K-Ras G12C, IC50).
Assay type: cell-based, human
Experimental: Note - The following protocol describes a procedure for monitoring cell viability of K-Ras mutant cancer cell lines in response to a compound of the invention. Other RAS isoforms may be employed, though the number of cells to be seeded will vary based on cell line used.
Test compounds (132.5 nL) were directly dispensed into the assay plates containing cells. […] On day 5, assay plates and their contents were equilibrated to room temperature for approximately 30 minutes. […] Luminescence was measured using the PerkinElmer Enspire. Data were normalized by the following: (Sample signal/Avg. DMSO)*100. The data were fit using a four-parameter logistic fit.

| SMILES | IC50 [nM] |
| --- | --- |
| C=CC(=O)N1CC[C@H](C(=O)N(C)[C@H](C(=O)N[C@H]2Cc3cc(N)cc(c3)-c3ccc4c(c3)c(c(-c3ccccc3CCOC)n4CC)CC(C)(C)COC(=O)[C@@H]3CCCN(N3)C2=O)C(C)C)C1 [Compound A2, (2S)-N-[(8S,14S)-4-amino-22-ethyl-21-[2-(2-methoxyethyl)phenyl]-18,18-dimethyl-9,15-dioxo-16-oxa-10,22,28-triazapentacyclo[18.5.2.1^2,6.1^10,^14.0^23,^27]nonacosa-1(26),2,4,6(29),20,23(27),24-heptaen-8-yl]-3-methyl-2-{N-methyl-1-[(3S)-1-(prop-2-enoyl)pyrrolidin-3-yl]formamido}butanamide] | > 1000 |
| C=CC(=O)N1CC[C@H](C(=O)N(C)[C@H](C(=O)N[C@H]2Cc3cc(O)cc(c3)-c3ccc4c(c3)c(c(-c3ccccc3CN(C)C)n4CC)CC(C)(C)COC(=O)[C@@H]3CCCN(N3)C2=O)C(C)C)C1 [Compound A5] | 10 to 100 |
| C=CC(=O)N1CC[C@H](C(=O)N(C)[C@H](C(=O)N[C@H]2Cc3cc(OC(=O)CN)cc(c3)-c3ccc4c(c3)c(c(-c3ccccc3CCOC)n4CC)CC(C)(C)COC(=O)[C@@H]3CCCN(N3)C2=O)C(C)C)C1 [Compound A8] | 100 to 1000 |
| C=CC(=O)N1CC[C@H](C(=O)N(C)[C@H](C(=O)N[C@H]2Cc3cc(cc(O)c3F)-c3ccc4c(c3)c(c(-c3ccccc3CCOC)n4CC)CC(C)(C)COC(=O)[C@@H]3CCCN(N3)C2=O)C(C)C)C1 [Compound A9] | 100 to 1000 |
| C=CC(=O)N1CCC(F)(C(=O)N(C)[C@H](C(=O)N[C@H]2Cc3cc(O)cc(c3)-c3ccc4c(c3)c(c(-c3ccccc3CCOC)n4CC)CC(C)(C)COC(=O)[C@@H]3CCCN(N3)C2=O)C(C)C)CC1 [Compound A11] | 100 to 1000 |
| C=CC(=O)N1CCN(C(=O)N(C)[C@H](C(=O)N[C@H]2Cc3cc(O)cc(c3)-c3ccc4c(c3)c(c(-c3ccccc3CCOC)n4CC)CC(C)(C)COC(=O)[C@@H]3CCCN(N3)C2=O)C(C)C)CC1 [Compound A18] | 100 to 1000 |
| C=CC(=O)N1CC[C@H](C(=O)N(C)[C@H](C(=O)N[C@H]2Cc3cc(O)cc(c3)-c3ccc4c(c3)c(c(-c3ccc(CC(=O)O)cc3)n4CC)CC(C)(C)COC(=O)[C@@H]3CCCN(N3)C2=O)C(C)C)C1 [Compound A21] | > 1000 |
| C=CC(=O)N1CC[C@H](C(=O)N(C)[C@H](C(=O)N[C@H]2Cc3cc(O)cc(c3)-c3ccc4c(c3)c(c(-c3ccccc3)n4CC)CC(C)(C)COC(=O)[C@@H]3CCCN(N3)C2=O)C(C)C)C1 [Compound A23] | 100 to 1000 |
| C=CC(=O)N1CC[C@H](C(=O)N(C)[C@H](C(=O)N[C@H]2Cc3cc(O)cc(c3)-c3ccc4c(c3)c(c(-c3ccccc3[C@@H](C)OC)n4CC)CC(C)(C)COC(=O)[C@@H]3CCCN(N3)C2=O)C(C)C)C1 [Compound A29] | 100 to 1000 |
| C=CC(=O)N1CC[C@H](C(=O)N(C)[C@H](C(=O)N[C@H]2Cc3cc(O)cc(c3)-c3ccc4c(c3)c(c(-c3cccc(CN(C)C)c3)n4CC)CC(C)(C)COC(=O)[C@@H]3CCCN(N3)C2=O)C(C)C)C1 [Compound A30] | 10 to 100 |
| C=CC(=O)N1CCC(C(=O)N(C)[C@H](C(=O)N[C@H]2Cc3cc(O)cc(c3)-c3ccc4c(c3)c(c(-c3ccccc3CN(C)C)n4CC)CC(C)(C)COC(=O)[C@@H]3CCCN(N3)C2=O)C(C)C)CC1 [Compound A33] | 100 to 1000 |

Now from value to compound:

| IC50 [nM] | SMILES |
| --- | --- |
| 100 to 1000 | C=CC(=O)N1CC[C@H](C(=O)N(C)[C@H](C(=O)N[C@H]2Cc3cc(O)cc(c3)-c3ccc4c(c3)c(c(-c3ccc(CN(C)C)cc3)n4CC)CC(C)(C)COC(=O)[C@@H]3CCCN(N3)C2=O)C(C)C)C1 [Compound A3] |
| 100 to 1000 | C=CC(=O)N1CC[C@H](C(=O)N(C)[C@H](C(=O)N[C@H]2Cc3cc(O)cc(c3)-c3ccc4c(c3)c(c(-c3ccccc3CCOC)n4CC)CC(C)(C)COC(=O)[C@@H]3CCCN(N3)C2=O)C2CCOCC2)C1 [Compound A6] |
| 100 to 1000 | C=CC(=O)N1CC[C@H](C(=O)N(C)[C@H](C(=O)N[C@H]2Cc3cc(OC(=O)CCN4CCN(C)CC4)cc(c3)-c3ccc4c(c3)c(c(-c3ccccc3CCOC)n4CC)CC(C)(C)COC(=O)[C@@H]3CCCN(N3)C2=O)C(C)C)C1 [Compound A7] |
| 100 to 1000 | C=CC(=O)N1CCCN(C(=O)N(C)[C@H](C(=O)N[C@H]2Cc3cc(O)cc(c3)-c3ccc4c(c3)c(c(-c3ccccc3CCOC)n4CC)CC(C)(C)COC(=O)[C@@H]3CCCN(N3)C2=O)C(C)C)CC1 [Compound A13] |
| 100 to 1000 | C=CC(=O)N1CCC(C(=O)N(C)[C@H](C(=O)N[C@H]2Cc3cc(O)cc(c3)-c3ccc4c(c3)c(c(-c3ccccc3CCOC)n4CC)CC(C)(C)COC(=O)[C@@H]3CCCN(N3)C2=O)C(C)C)CC1 [Compound A14] |
| 10 to 100 | C=CC(=O)N1CC[C@H](C(=O)N(C)[C@H](C(=O)N[C@H]2Cc3cc(O)cc(c3)-c3ccc4c(c3)c(c(-c3cccnc3COC)n4CC)CC(C)(C)COC(=O)[C@@H]3CCCN(N3)C2=O)C(C)C)C1 [Compound A16] |
| 100 to 1000 | C=CC(=O)N1CC[C@H](C(=O)N(C)[C@H](C(=O)N[C@H]2Cc3cc(O)cc(c3)-c3ccc4c(c3)c(c(-c3ccccc3OC)n4CC)CC(C)(C)COC(=O)[C@@H]3CCCN(N3)C2=O)C(C)C)C1 [Compound A17] |
| 100 to 1000 | CCn1c(-c2ccccc2CCOC)c2c3cc(ccc31)-c1cc(O)cc(c1)C[C@H](NC(=O)[C@H](C(C)C)N(C)C(=O)C1CCN(C(=O)/C=C/CN(C)C)CC1)C(=O)N1CCC[C@H](N1)C(=O)OCC(C)(C)C2 [Compound A19] |
| 10 to 100 | C=CC(=O)N1CCC(F)(C(=O)N(C)[C@H](C(=O)N[C@H]2Cc3cc(O)cc(c3)-c3ccc4c(c3)c(c(-c3ccccc3CN(C)C)n4CC)CC(C)(C)COC(=O)[C@@H]3CCCN(N3)C2=O)C(C)C)CC1 [Compound A20] |
| 10 to 100 | C=CC(=O)N1CC[C@H](C(=O)N(C)[C@H](C(=O)N[C@H]2Cc3cc(O)cc(c3)-c3ccc4c(c3)c(c(-c3ccccc3[C@H](C)OC)n4CC)CC(C)(C)COC(=O)[C@@H]3CCCN(N3)C2=O)C(C)C)C1 [Compound A22] |
| > 1000 | C=CC(=O)N1CC[C@H](C(=O)N(C)[C@H](C(=O)N[C@H]2Cc3cccc(c3)-c3ccc4c(c3)c(c(-c3ccccc3CCOC)n4CC)CC(C)(C)COC(=O)[C@@H]3CCCN(N3)C2=O)C(C)C)C1 [Compound A24] |
| 100 to 1000 | C=CC(=O)N1CC[C@H](C(=O)N(C)[C@H](C(=O)N[C@H]2Cc3cc(O)cc(c3)-c3ccc4c(c3)c(c(-c3c(F)cccc3CCOC)n4CC)CC(C)(C)COC(=O)[C@@H]3CCCN(N3)C2=O)C(C)C)C1 [Compound A25] |
| 100 to 1000 | C=CC(=O)N1CC[C@H](C(=O)N(C)[C@H](C(=O)N[C@H]2Cc3cc(O)cc(c3)-c3ccc4c(c3)c(c(-c3ccccc3N3CCOCC3)n4CC)CC(C)(C)COC(=O)[C@@H]3CCCN(N3)C2=O)C(C)C)C1 [Compound A26] |
| 10 to 100 | C=CC(=O)N1CC[C@H](C(=O)N(C)[C@H](C(=O)N[C@H]2Cc3cc(O)cc(c3)-c3ccc4c(c3)c(c(-c3ccccc3COC)n4CC)CC(C)(C)COC(=O)[C@@H]3CCCN(N3)C2=O)C2CCCC2)C1 [Compound A27] |
| 10 to 100 | C=CC(=O)N1CC2(CCN([C@H](C(=O)N[C@H]3Cc4cc(O)cc(c4)-c4ccc5c(c4)c(c(-c4ccccc4CCOC)n5CC)CC(C)(C)COC(=O)[C@@H]4CCCN(N4)C3=O)C(C)C)C2=O)C1 [Compound A31] |
| 10 to 100 | C=CC(=O)N1CC[C@H](C(=O)N(C)[C@H](C(=O)N[C@H]2Cc3cc(O)cc(c3)-c3ccc4c(c3)c(c(-c3ccccc3CCOC)n4C(C)(C)C#N)CC(C)(C)COC(=O)[C@@H]3CCCN(N3)C2=O)C(C)C)C1 [Compound A34] |
